Measurements published in article PMC10299128, “The Parallel Structure–Activity Relationship Screening of Three Compounds Identifies the Common Agonist Pharmacophore of Pyrrolidine Bis-Cyclic Guanidine Melanocortin-3 Receptor (MC3R) Small-Molecule Ligands” (International Journal of Molecular Sciences, 2023).
Where two headings read alike, the source gives them in different places.

Tests used:
[1] = biological target: mMC1R (Mus musculus, UniProt Q01727); assay: AlphaScreen cAMP agonist assay, HEK293 cells stably expressing mMC1R; details: for mMC1R partial agonist efficacy bin: sigmoidal curve, efficacy <90% of NDP-MSH; for fold decreased mMC1R agonist potency: relative to 2718.001
mMC1R, sequence (Q01727 whole entry): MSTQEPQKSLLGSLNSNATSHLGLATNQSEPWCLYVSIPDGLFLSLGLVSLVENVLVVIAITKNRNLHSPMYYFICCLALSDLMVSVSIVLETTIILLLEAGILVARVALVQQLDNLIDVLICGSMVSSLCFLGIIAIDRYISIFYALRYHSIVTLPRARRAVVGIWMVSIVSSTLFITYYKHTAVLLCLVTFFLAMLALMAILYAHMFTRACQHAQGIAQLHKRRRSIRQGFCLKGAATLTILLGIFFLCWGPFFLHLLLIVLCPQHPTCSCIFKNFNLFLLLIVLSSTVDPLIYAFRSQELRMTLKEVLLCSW

[2] = biological target: mMC5R (Mus musculus, UniProt P41149); assay: AlphaScreen cAMP agonist assay, HEK293 cells stably expressing mMC5R; details: for mMC5R percent maximal stimulatory response (compared to NDP-MSH): at 1 mM, not enough stimulation to determine EC50; for mMC5R partial agonist efficacy bin: sigmoidal curve, efficacy <90% of NDP-MSH; for mMC5R agonist efficacy (in words): relative to NDP-MSH, full = >90% receptor activation
mMC5R, sequence (P41149 whole entry): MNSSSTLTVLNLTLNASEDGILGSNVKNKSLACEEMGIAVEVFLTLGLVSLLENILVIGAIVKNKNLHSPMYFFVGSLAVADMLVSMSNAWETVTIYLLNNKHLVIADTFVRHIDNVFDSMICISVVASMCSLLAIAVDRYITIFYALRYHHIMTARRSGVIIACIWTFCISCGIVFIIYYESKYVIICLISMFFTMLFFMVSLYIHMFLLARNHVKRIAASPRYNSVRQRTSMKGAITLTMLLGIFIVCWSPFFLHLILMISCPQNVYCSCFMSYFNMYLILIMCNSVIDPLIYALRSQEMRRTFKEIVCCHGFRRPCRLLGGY

[3] = biological target: mMC4R (Mus musculus, UniProt P56450); assay: AlphaScreen cAMP agonist assay, HEK293 cells stably expressing mMC4R; details: for mMC4R partial agonist efficacy bin: sigmoidal curve, efficacy <90% of NDP-MSH
mMC4R, sequence (P56450 whole entry): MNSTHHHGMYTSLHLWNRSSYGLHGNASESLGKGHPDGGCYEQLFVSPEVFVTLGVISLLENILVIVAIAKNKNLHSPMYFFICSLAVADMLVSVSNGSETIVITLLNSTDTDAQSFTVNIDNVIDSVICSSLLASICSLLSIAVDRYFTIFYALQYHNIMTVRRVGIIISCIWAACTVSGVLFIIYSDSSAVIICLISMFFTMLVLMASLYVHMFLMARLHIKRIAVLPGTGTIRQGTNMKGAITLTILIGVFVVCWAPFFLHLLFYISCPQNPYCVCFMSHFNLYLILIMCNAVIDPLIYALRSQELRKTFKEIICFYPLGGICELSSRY

[4] = biological target: mMC3R (Mus musculus, UniProt P33033); assay: AlphaScreen cAMP agonist assay, HEK293 cells stably expressing mMC3R; details: for mMC3R partial agonist efficacy bin: sigmoidal curve, efficacy <90% of NDP-MSH
mMC3R, sequence (P33033 whole entry): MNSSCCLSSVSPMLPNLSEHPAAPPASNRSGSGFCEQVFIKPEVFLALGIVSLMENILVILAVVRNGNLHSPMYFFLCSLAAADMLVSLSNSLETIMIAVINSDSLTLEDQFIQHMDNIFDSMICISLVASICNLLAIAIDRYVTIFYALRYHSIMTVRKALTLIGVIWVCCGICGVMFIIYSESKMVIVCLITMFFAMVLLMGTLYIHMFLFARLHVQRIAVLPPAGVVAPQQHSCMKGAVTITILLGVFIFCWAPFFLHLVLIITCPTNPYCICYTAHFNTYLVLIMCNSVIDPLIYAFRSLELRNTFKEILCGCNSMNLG

[5] = at 1 mM, not enough stimulation to determine EC50

| Structure (SMILES) | EC50 [1] [µM] | mMC1R partial agonist efficacy bin [1] | EC50 [2] [µM] | EC50 [4] [µM] | mMC4R percent maximal stimulatory response (compared to NDP-MSH) [3, 5] [% @ 1 mM] | mMC3R percent maximal stimulatory response (compared to NDP-MSH) [4, 5] [% @ 1 mM] | further results |
| --- | --- | --- | --- | --- | --- | --- | --- |
| CCN1C(=N)N([C@H](Cc2ccccc2)CN2CCC[C@H]2CN2C(=N)NC[C@H]2CC(C)C)C[C@H]1[C@H](C)O [Compound 2718.004] | 20.6 | A (A (20–50% receptor activation)) | > 1000 | > 1000 | – | – | EC50 [3]: > 1000 µM |
| CC(C)C[C@@H]1CNC(=N)N1C[C@@H]1CCCN1C[C@@H](Cc1ccccc1)N1CCNC1=N [Compound 2718.006] | – | – | – | > 1000 | 20 | – | mMC1R percent maximal stimulatory response (compared to NDP-MSH) [1, 5]: 40% @ 1 mM; mMC5R percent maximal stimulatory response (compared to NDP-MSH) [2]: 30% @ 1 mM |
| CCN1C(=N)N([C@H](CC2CCCCC2)CN2CCC[C@H]2CN2C(=N)NC[C@H]2CC(C)C)C[C@H]1[C@H](C)O [Compound 2718.010] | 5 ± 1 | B (B (51–90% receptor activation)) | 45.5 | > 1000 | 20 | – | mMC5R partial agonist efficacy bin [2]: A (A (20–50% receptor activation)) |
| CC(C)C[C@@H]1CNC(=N)N1C[C@@H]1CCCN1C[C@@H](CC1CCCCC1)N1C[C@@H]([C@H](C)O)NC1=N [Compound 2718.011] | 15 | B (B (51–90% receptor activation)) | – | > 1000 | – | – | EC50 [3]: > 1000 µM |
| CC(C)C[C@@H]1CNC(=N)N1C[C@@H]1CCCN1C[C@@H](CC1CCCCC1)N1CCNC1=N [Compound 2718.012] | 15 | B (B (51–90% receptor activation)) | – | > 1000 | – | – | EC50 [3]: > 1000 µM |
| CCC[C@@H]1CN([C@H](CC2CCCCC2)CN2CCC[C@H]2CN2C(=N)NC[C@H]2C(C)C)C(=N)N1CC [Compound 2718.014] | 9 ± 3 | B (B (51–90% receptor activation)) | – | – | – | 20 | mMC5R percent maximal stimulatory response (compared to NDP-MSH) [2]: 50% @ 1 mM; EC50 [3]: > 1000 µM |
| CCC[C@@H]1CN([C@H](CC2CCCCC2)CN2CCC[C@H]2CN2C(=N)NC[C@H]2C(C)C)C(=N)N1 [Compound 2718.015] | 11 | B (B (51–90% receptor activation)) | – | > 1000 | – | – | mMC5R percent maximal stimulatory response (compared to NDP-MSH) [2]: 35% @ 1 mM; EC50 [3]: > 1000 µM |
| CC(C)[C@@H]1CNC(=N)N1C[C@@H]1CCCN1C[C@@H](CC1CCCCC1)N1CCNC1=N [Compound 2718.016] | 30 | B (B (51–90% receptor activation)) | – | > 1000 | – | – | – |
| CCCCC1CNC(=N)N1CC1CCC(C(C)(C)C)CC1 (stereo not shown) [Compound 2718.021] | – | – | – | – | – | – | mMC1R percent maximal stimulatory response (compared to NDP-MSH) ([1]; at 100 µM): 80% @ 100 µM; EC50 ([2]; read-out: mMC5R EC50, agonist, mean ± SEM, at least three independent experiments, >1,000,000 = no agonist activity up to 1 mM): 17 µM; fold decreased mMC5R agonist potency ([2]; relative to 2718.003): 14 fold; mMC5R agonist efficacy (in words) [2]: fully activate; mMC4R percent maximal stimulatory response (compared to NDP-MSH) ([3]; at 100 µM): 50% @ 100 µM; mMC3R percent maximal stimulatory response (compared to NDP-MSH) ([4]; at 100 µM): 50% @ 100 µM |
| CC(C)C[C@@H]1CNC(=N)N1C[C@@H]1CCCN1C[C@@H](Cc1ccccc1)N1C[C@H]([C@@H](C)O)N(CC2CCC(C(C)(C)C)CC2)C1=N (stereo partly shown) [Compound 2718.030] | 4 ± 2 | B (B (51–90% receptor activation)) | 5 ± 2 | – | 60 | 50 | mMC5R partial agonist efficacy bin [2]: B (B (51–90% receptor activation)) |
| CC(C)C[C@@H]1CNC(=N)N1C[C@@H]1CCCN1C[C@H](Cc1ccccc1)N1C[C@@H]([C@H](C)O)N(CC2CCC(C(C)(C)C)CC2)C1=N (stereo partly shown) [Compound 2718.031] | 2.3 ± 0.9 | – | – | – | 55 | 55 | fold decreased mMC1R agonist potency [1]: 7 fold; mMC5R percent maximal stimulatory response (compared to NDP-MSH) [2]: 70% @ 1 mM |
| CC(C)C[C@@H]1CNC(=N)N1C[C@H]1CCCN1C[C@@H](Cc1ccccc1)N1C[C@@H]([C@H](C)O)N(CC2CCC(C(C)(C)C)CC2)C1=N (stereo partly shown) [Compound 2718.032] | 0.4 ± 0.06 | – | 0.6 ± 0.2 | 1.5 ± 0.4 | 55 | – | mMC3R partial agonist efficacy bin [4]: B (B (51–90% receptor activation)) |
| CC(C)C[C@H]1CNC(=N)N1C[C@@H]1CCCN1C[C@@H](Cc1ccccc1)N1C[C@@H]([C@H](C)O)N(CC2CCC(C(C)(C)C)CC2)C1=N (stereo partly shown) [Compound 2718.033] | 0.38 ± 0.04 | – | 0.9 ± 0.3 | 3.8 ± 0.6 | 60 | – | mMC3R partial agonist efficacy bin [4]: B (B (51–90% receptor activation)) |
| CC(C)C[C@H]1CNC(=N)N1C[C@H]1CCCN1C[C@H](Cc1ccccc1)N1C[C@H]([C@@H](C)O)N(CC2CCC(C(C)(C)C)CC2)C1=N (stereo partly shown) [Compound 2718.034] | – | – | 3 ± 1 | – | 55 | 50 | mMC1R percent maximal stimulatory response (compared to NDP-MSH) [1, 5]: 75% @ 1 mM; fold decreased mMC5R agonist potency ([2]; relative to 2718.001): 12 fold |
| CC(C)C[C@@H]1CNC(=N)N1C[C@@H]1CCCN1C[C@H](Cc1ccccc1)N1C[C@H]([C@@H](C)O)N(CC2CCC(C(C)(C)C)CC2)C1=N (stereo partly shown) [Compound 2718.035] | 3.7 ± 0.7 | – | 23 | – | 55 | 55 | fold decreased mMC1R agonist potency [1]: 12 fold; mMC5R partial agonist efficacy bin [2]: B (B (51–90% receptor activation)) |
| CC(C)CC1CNC(=N)N1CC1CCCN1CC(Cc1ccc2ccccc2c1)N1CC(C(C)O)N(CC2CCC(C(C)(C)C)CC2)C1=N (stereo not shown) [Compound 2718.055] | 1 ± 0.2 | – | 8 ± 2 | 7 ± 3 | – | – | mMC3R partial agonist efficacy bin [4]: B (B (51–90% receptor activation)) |
| CC(C)CC1CNC(=N)N1CC1CCCN1CC(Cc1c[nH]c2ccccc12)N1CC(C(C)O)N(CC2CCC(C(C)(C)C)CC2)C1=N (stereo not shown) [Compound 2718.056] | 6 ± 3 | B (B (51–90% receptor activation)) | 14 | – | – | – | fold decreased mMC5R agonist potency ([2]; relative to 2718.002): 50 fold |
| CC(C)CC1CNC(=N)N1CC1CCCN1CC(Cc1ccc(O)cc1)N1CC(C(C)O)N(CC2CCC(C(C)(C)C)CC2)C1=N (stereo not shown) [Compound 2718.057] | 0.5 ± 0.1 | – | 6 ± 2 | 11 | – | – | mMC5R partial agonist efficacy bin [2]: B (B (51–90% receptor activation)); mMC3R partial agonist efficacy bin [4]: B (B (51–90% receptor activation)) |

Second part, led by results:

| EC50 [1] [µM] | mMC1R partial agonist efficacy bin [1] | EC50 [2] [µM] | EC50 [4] [µM] | mMC4R percent maximal stimulatory response (compared to NDP-MSH) [3, 5] [% @ 1 mM] | mMC3R percent maximal stimulatory response (compared to NDP-MSH) [4, 5] [% @ 1 mM] | Structure (SMILES) | further results |
| --- | --- | --- | --- | --- | --- | --- | --- |
| – | – | 140 | – | 55 | 70 | CC(O)C1CNC(=N)N1CC1CCC(C(C)(C)C)CC1 (stereo not shown) [Compound 2718.020] | mMC1R percent maximal stimulatory response (compared to NDP-MSH) [1, 5]: 70% @ 1 mM; mMC5R agonist efficacy (in words) [2]: fully activate |
| – | – | – | – | – | 30 | CC(C)C[C@@H]1CNC(=N)N1C[C@@H]1CCCN1CCN1C[C@@H]([C@H](C)O)N(CC2CCC(C(C)(C)C)CC2)C1=N (stereo partly shown) [Compound 2718.023] | mMC1R percent maximal stimulatory response (compared to NDP-MSH) [1, 5]: 85% @ 1 mM; mMC5R percent maximal stimulatory response (compared to NDP-MSH) [2]: 80% @ 1 mM; EC50 [3]: 40 µM; mMC4R partial agonist efficacy bin [3]: A (A (20–50% receptor activation)) |
| 10 | B (B (51–90% receptor activation)) | 19 | – | 35 | 35 | CCC[C@@H]1CN(CCN2CCC[C@H]2CN2C(=N)NC[C@H]2C(C)C)C(=N)N1CC1CCC(C(C)(C)C)CC1 (stereo partly shown) [Compound 2718.028] | mMC5R partial agonist efficacy bin [2]: B (B (51–90% receptor activation)) |
| 0.9 ± 0.3 | – | 5.8 ± 0.9 | – | 55 | 50 | CC(C)C[C@@H]1CNC(=N)N1C[C@H]1CCCN1C[C@@H](Cc1ccccc1)N1C[C@H]([C@@H](C)O)N(CC2CCC(C(C)(C)C)CC2)C1=N (stereo partly shown) [Compound 2718.036] | mMC5R partial agonist efficacy bin [2]: B (B (51–90% receptor activation)) |
| 0.87 ± 0.07 | – | 0.45 ± 0.03 | – | – | – | CC(C)C[C@@H]1CNC(=N)N1C[C@H]1CCCN1C[C@@H](CC1CCCCC1)N1C[C@@H]([C@H](C)O)N(CC2CCC(C(C)(C)C)CC2)C1=N (stereo partly shown) [Compound 2718.047] | EC50 [3]: 3.1 ± 0.2 µM; mMC4R partial agonist efficacy bin [3]: B (B (51–90% receptor activation)) |
| 0.39 ± 0.03 | – | 0.65 ± 0.08 | 2.9 ± 0.2 | – | – | CC(C)C[C@H]1CNC(=N)N1C[C@@H]1CCCN1C[C@@H](CC1CCCCC1)N1C[C@@H]([C@H](C)O)N(CC2CCC(C(C)(C)C)CC2)C1=N (stereo partly shown) [Compound 2718.048] | mMC3R partial agonist efficacy bin [4]: B (B (51–90% receptor activation)) |
| 8 ± 2 | B (B (51–90% receptor activation)) | 2.8 ± 0.1 | – | – | – | CC(C)C[C@H]1CNC(=N)N1C[C@H]1CCCN1C[C@H](CC1CCCCC1)N1C[C@H]([C@@H](C)O)N(CC2CCC(C(C)(C)C)CC2)C1=N (stereo partly shown) [Compound 2718.049] | fold decreased mMC5R agonist potency ([2]; relative to 2718.002): 10 fold |
| – | – | 6 ± 1 | 11 | – | – | CC(C)CC1CNC(=N)N1CC1CCCN1CC(C1CCCCC1)N1CC(C(C)O)N(CC2CCC(C(C)(C)C)CC2)C1=N (stereo not shown) [Compound 2718.059] | fold decreased mMC5R agonist potency ([2]; relative to 2718.002): 20 fold; mMC3R partial agonist efficacy bin [4]: A (A (20–50% receptor activation)) |
